Test results from a melting point compilation (Tetko et al.).

Structure (SMILES)	melting point
O=C(O)c1cc(S(=O)(=O)Cl)cc(Br)c1Cl	160 to 162 °C
N#CCSc1cccc(C(=O)O)c1	144 to 146 °C
COc1ccc(C=CC(=O)O)cc1S(=O)(=O)N1CCCCC1	219 to 221 °C
Nc1ccc(S(=O)(=O)CC2CCOC2)cc1 (configuration not stated)	118 to 120 °C
CC(=O)c1ccc(-n2cnc3ccccc32)cc1	135 to 137 °C
Cn1nc(C(=O)O)cc1C1CC1	196 to 198 °C
CCN(CC)Cc1ccc(C(=O)O)cc1	154 to 156 °C
NC1(C(=O)NCC2CC2)CCCC1	64 to 66 °C
CNc1ncnc2ccsc12	179 to 181 °C
Cc1ccc2c(c1)C(=O)N(CCCC(=O)O)C2=O	239 to 241 °C
COc1cccnc1N	76 to 78 °C
Nc1nncc(-c2ccc(Cl)s2)n1	259 to 261 °C
N#Cc1ccccc1OCc1ccccc1	70 to 72 °C
Cc1csc(-c2cccc(O)c2)n1	108 to 110 °C
NCc1ccc(-n2cncn2)cc1Cl	111 to 113 °C
Nc1nnc(-c2ccc(F)cc2)o1	246 to 248 °C
O=C1CC(C(=O)O)CS1 (configuration not stated)	108 to 110 °C
COC(=O)c1c(C(=O)CCl)c(C)n(C2CC2)c1C	74 to 78 °C
CC(C)CNC(=O)C(C)Cl (configuration not stated)	37 to 39 °C
CC(O)C1NC(=O)NC1=O (configuration not stated)	179 to 181 °C
O=C(O)C1CCN(Cc2ccc(Cl)s2)CC1	173 to 175 °C
O=C(O)C1CCOc2ccccc21 (configuration not stated)	87 to 89 °C
NC(=O)c1ccc(C=O)cc1	100 to 102 °C
O=C(CC1CCCC1)c1ccc(Oc2ccccc2)cc1	30 to 32 °C

Structure (SMILES)	melting point
Nc1nnc(-c2ccncc2)[nH]1	271 to 273 °C
Cc1cc(-c2nc(C)cs2)c(=O)[nH]n1	267 to 269 °C
NS(=O)(=O)c1cc([N+](=O)[O-])ccc1Br	204 to 206 °C
N#Cc1cccc(CS(=O)(=O)NCC(=O)O)c1	158 to 160 °C
COc1ccc(C(=O)CCC(=O)O)c(Cl)c1	165 to 167 °C
Cc1occc1C(=O)NCC(=O)O	143 to 145 °C
O=C(O)Cc1cc2ccccc2[nH]c1=O	278 to 280 °C
Oc1cccc(-c2cn[nH]c2)c1	218 to 220 °C
O=C(O)CCC(=O)c1cc(Cl)ccc1Cl	97 to 99 °C
CC(=O)c1ccc(S(=O)(=O)NC(CC(N)=O)C(=O)O)cc1 (configuration not stated)	180 to 182 °C
CN(c1ccc(O)cc1)S(=O)(=O)c1ccccc1F	100 to 102 °C
O=C(/C=C/c1ccco1)C(C(=O)/C=C/c1ccco1)=C1SCCCCS1	137 to 139 °C
COC(=O)c1cc(S(=O)(=O)Cl)c(Br)cc1Cl	135 to 137 °C
COC(=O)C1CCN(C(=O)c2ccc(Cl)c(Cl)c2)CC1	103 to 105 °C
N#CCc1nc2scc(C3CC3)c2c(=O)[nH]1	284 to 286 °C
COC(=O)c1ccccc1NC(=O)OCC(F)(F)F	86 to 88 °C
Brc1ccc(-c2ncno2)cc1	109 to 111 °C
O=C(O)C1(c2ccc(F)cc2F)CCOCC1	134 to 136 °C
O=C1CN=C(S)N1C1CCCCCC1	72 to 74 °C
CC(C)N1C2CCC1CC(C(=O)O)C2 (configuration not stated)	223 to 225 °C
Cc1ccc(C(=O)Cc2ccccc2)cc1C	93 to 95 °C
CC(NC(=O)c1cccc(Cl)c1Cl)C(=O)O (configuration not stated)	152 to 154 °C
Cc1c(Br)cc(S(=O)(=O)Cl)cc1[N+](=O)[O-]	122 to 124 °C
Oc1ccc2cn[nH]c2c1	189 to 191 °C

Structure (SMILES)	melting point
CC1=NOC(=O)C1CCC(=O)O (configuration not stated)	139 to 141 °C
CCCc1c(C(=O)O)nnn1-c1cccc(C(C)C)c1	78 to 80 °C
CN(C)C(=O)Sc1cnn(-c2ccccc2F)c1	65 to 67 °C
CC(=O)OC(OC(C)=O)c1ccc(S(=O)(=O)Cl)cc1	109 to 111 °C
O=C(CCc1ccccc1)Cc1ccccc1	41 to 43 °C
Nc1[nH]ncc1[N+](=O)[O-]	237 to 239 °C
CCc1ccc(C=CS(=O)(=O)Cl)cc1	66 to 68 °C
Cc1ccc2c(c1)OC(C)C(=O)N2 (configuration not stated)	154 to 156 °C
Clc1nccn2cnnc12	195 to 197 °C
OCc1cc2ccc(Br)cc2[nH]1	115 to 117 °C
CCOCCNC(N)=O	60 to 62 °C
NC(=O)Nc1cccc(C(=O)O)c1	269 to 271 °C
NNC(=O)c1n[nH]c(=O)c2ccccc12	239 to 241 °C
COc1ccc(N2CC(C(=O)O)CC2=O)cc1OC (configuration not stated)	201 to 203 °C
CC1CC(C(=O)O)CCC1=O (configuration not stated)	69 to 71 °C
Cc1cc(Br)ccc1NS(C)(=O)=O	144 to 146 °C
O=C1NC(=O)c2ncccc21	241 to 243 °C
Fc1ccccc1-c1nnc(CCl)o1	86 to 88 °C
O=C(O)C1CCCN(C(=O)c2ccccn2)C1 (configuration not stated)	167 to 169 °C
CCOC(=O)CN1C(=O)C(=O)c2ccccc21	127 to 129 °C
Cn1cc(CC2CC(=O)NC2=O)cn1 (configuration not stated)	116 to 118 °C
NNC(=O)CSc1nnc(-c2ccccc2)n1-c1ccccc1	242 to 244 °C
Cc1n[nH]c(-c2ccc(Cl)c(Cl)c2)n1	200 to 202 °C
NS(=O)(=O)CCCC(F)(F)F	66 to 68 °C

Structure (SMILES)	melting point
NS(=O)(=O)c1ccc(-c2cccc(C(F)(F)F)c2)c(C(=O)O)c1	181 to 183 °C
Cn1cc(C#N)c(N)n1	119 to 121 °C
CN(C)S(=O)(=O)c1cc(C(=O)O)n(C)c1	159 to 161 °C
C=CCc1cc(C=O)cc(OC)c1O	80 to 82 °C
CCN(CC)S(=O)(=O)c1cccc(C(=O)NCC(=O)O)c1	69 to 71 °C
NC(=O)C(Cl)c1ccc(Br)cc1 (configuration not stated)	164 to 166 °C
CC(C)CNS(=O)(=O)c1ccc(Br)c(C(=O)O)c1	174 to 176 °C
CS(=O)(=O)c1cccs1	43 to 45 °C
O=C(CCl)NNC(=O)C1CCC1	199 to 201 °C
COc1ccc(C(=O)c2ccco2)cc1	62 to 64 °C
CC(C)CCC(C)NC(=O)C1CSCN1 (configuration not stated)	77 to 79 °C
CCOC(=O)c1cnn(C)c1-c1ccccc1	59 to 61 °C
CCc1ccc(C(=O)Nc2ccc(N)cc2Cl)s1	120 to 122 °C
O=c1[nH]nc(-c2cccs2)o1	116 to 118 °C
COC(=O)CNC(=O)Cc1ccc(N)cc1	93 to 95 °C
COc1cc(NC(=O)CCCl)cc(OC)c1OC	117 to 119 °C
O=C(CCl)c1ccc(N2CCOC2=O)cc1	167 to 169 °C
CC(=O)N1CCC(C(=O)O)C1 (configuration not stated)	145 to 147 °C
CCOC(OCC)c1cc(-c2cccc(F)c2)[nH]n1	82 to 84 °C
Fc1ccc(CNc2nc3ccccc3s2)cc1	155 to 157 °C
NNc1oc(-c2ccccc2)nc1C(N)=O	173 to 175 °C
Cc1cc(N)ccc1S(N)(=O)=O	169 to 171 °C
CC(C)(C)OC(=O)c1cccc(C(=O)O)c1	147 to 149 °C
NNS(=O)(=O)Cc1ccc(F)cc1	144 to 146 °C

Structure (SMILES)	melting point
CCc1ccc(O)c(C(=O)O)c1	118 to 120 °C
O=C(CCl)Nc1nc(-c2ccccc2Cl)c(-c2ccccc2Cl)s1	135 to 137 °C
Nc1ccc(CN2C(=O)CNC2=O)cc1	168 to 170 °C
O=C(c1c(F)cccc1F)N1CCNCC1	111 to 113 °C
NC(=O)c1ccc(OCCC(=O)O)cc1	214 to 216 °C
CCOC(=O)c1nc(-c2ccccc2)oc1N	181 to 183 °C
COc1nnc(Cl)c2ccccc12	99 to 101 °C
CCOC(=O)c1cc(C23CC4CC(CC(C4)C2)C3)[nH]n1	192 to 194 °C
COC(=O)c1c(Cl)ccc([N+](=O)[O-])c1N	89 to 91 °C
N#Cc1ccc(Cl)cc1NCc1ccccc1	93 to 95 °C
CCCn1c(N)cc(=O)n(C)c1=O	166 to 168 °C
Cc1ccc(C(=O)NC2CCNCC2)s1	163 to 165 °C
Cn1nc(C(C)(C)C)c2cc(C(=O)O)cnc21	243 to 245 °C
CN(C)C(=O)C1CNc2ccccc2O1 (configuration not stated)	90 to 92 °C
COC(=O)c1ccccc1-n1ncc(Cl)c(Cl)c1=O	125 to 127 °C
CCc1c(C(=O)O)[nH]c(C)c1C(C)=O	202 to 204 °C
NC(=O)C(N)Cc1ccccc1 (configuration not stated)	93 to 95 °C
CC1(C)CCC(CC(=O)O)c2ccccc21 (configuration not stated)	81 to 83 °C
Cc1cc(N)nn1-c1cccc(F)c1	69 to 71 °C
O=Cc1csc(COc2ccccc2)n1	76 to 78 °C
Oc1cnc2cc(Cl)c(Cl)cc2n1	299 to 301 °C
O=C(O)c1ccc(-c2ccccc2F)o1	173 to 175 °C
Cc1ccc(N2C(=O)CC(C(=O)O)C2c2cccs2)cc1 (configuration not stated)	175 to 177 °C
N#CCC(=O)c1cccc2c1OCCO2	99 to 101 °C

Structure (SMILES)	melting point
Cn1c(=O)c2sccc2n2c(CCl)nnc12	244 to 246 °C
OC(CNCc1ccccc1)C(F)(F)F (configuration not stated)	58 to 60 °C
COC(=O)C=Cc1ccc([N+](=O)[O-])cc1	161 to 163 °C
CCCc1cc(O)c2ccccc2n1	168 to 170 °C
CC(C)CNC(=O)C(C)Nc1cccc(Br)c1 (configuration not stated)	92 to 94 °C
N#CCCn1cc(C(=O)O)c(-c2cccc(Br)c2)n1	154 to 156 °C
CNC(=O)Cn1cnc(N)n1	149 to 151 °C
O=C(NCCc1ccc(O)cc1)c1ccc(Cl)cc1	168 to 170 °C
NC(=S)CCCc1ccccc1	59 to 61 °C
COc1ccc2cc(CCl)c(Cl)nc2c1	133 to 135 °C
NS(=O)(=O)c1cc(C(F)(F)F)ccc1Cl	154 to 156 °C
COc1ccccc1NC(=O)c1cc2ccccc2cc1O	161 to 164 °C
COC(=O)CCNc1nc2ccccc2o1	108 to 110 °C
Cc1ccc(C(=O)C(=O)c2ccccc2)cc1C	63 to 65 °C
Cc1ccc(C)c(NC(N)=S)c1	140 to 142 °C
O=C(O)CCSCc1nc2sc3c(c2c(=O)[nH]1)CCC3	227 to 229 °C
CC(C)(C)OC(=O)N1CCN(c2ccc(N)nc2)CC1	131 to 133 °C
COC(=O)C(=O)CC(=O)c1ccccc1C	59 to 61 °C
CCN(CC)S(=O)(=O)c1cc(C(=O)O)ccc1C	142 to 144 °C
CS(=O)(=O)Nc1cccc2c1CCCN2	117 to 119 °C
O=C(O)c1cccc(S(=O)(=O)Nc2ccccc2-c2ccccc2)c1	164 to 166 °C
O=C(O)CCNS(=O)(=O)c1cccnc1Cl	174 to 176 °C
